{"source": "patent US20060148828A1", "about": "“Combination comprising a CDK inhibitor and a topoisomerase 1 inhibitor for the treatment of cancer and other proliferative diseases” (Cyclacel Limited, priority 2003, published 2006)", "key": {"[1]": {"system": "wt-p53 HT29-A4 xenografts", "assay": "Antitumor effects on xenografts in nude mice", "format": "in vivo, Swiss nu/nu mice", "details": "for TGI, tumor growth inhibition: at sacrifice of first control mouse"}, "[2]": {"system": "HT29 colon tumor xenografts", "assay": "In vivo drug efficacy on xenografts in nude mice", "set-up": "species or system Swiss nu/nu mice", "details": "for CR nb (complete regression) / Cures nb (tumour-free mice at end) / PR nb (partial response): 9 mice; for TGI % (day): day 21; for Calc growth delay (TGD treated − TGD control): doses as in Treatment column; for Fraction T/C (treated RTV/control RTV × 100): mouse, in vivo"}, "wt-p53 HT29-A4 cells [3]": {"system": "wt-p53 HT29-A4 cells", "assay": "Western blot of apoptosis markers (PARP p85, cleaved caspase-3)", "format": "cell-based, human", "details": "1 μM CPT-11 for 72 h"}, "wt-p53 HT29-A4 cells [4]": {"system": "wt-p53 HT29-A4 cells", "details": "1 μM CPT-11 for 72 h, synchronized cells", "procedure": "(§1) Cells were maintained in DMEM medium supplemented with 10% fetal calf serum, and under continuous selection with geneticin for the wt-p53 HT29-A4 cell line.\n(§2) Cells were synchronized in G0/G1 by serum starvation for 48 h. Addition of serum and fresh medium released cells from the block and promoted them to cycle. Cell cycle progression was analyzed by BrdU (5-bromo-2′-deoxiuridine; Sigma) incorporation as described (13)."}, "wt-p53 HT29-A4 cells [5]": {"system": "wt-p53 HT29-A4 cells", "assay": "Cell cycle progression (BrdU incorporation)", "details": "1 μM CPT-11, up to 36 h, G0/G1 synchronized cells", "procedure": "as §1, §2"}, "[6]": {"details": "alone or in combination with chemotherapy, three to six 4-day cycles"}, "in vivo": {"assay": "in vivo", "details": "Swiss nu/nu, mouse, po"}, "[7]": {"details": "CPT-11 40 mg/kg/day i.p., 8 mice per group"}}, "note": "Where “and” joins values, the source holds several entries; their conditions need not be identical. Equal values may be shown once."}
{"smiles": "CCc1c2c(nc3ccc(OC(=O)N4CCC(N5CCCCC5)CC4)cc13)-c1cc3c(c(=O)n1C2)COC(=O)[C@]3(O)CC", "note": "[CPT-11, irinotecan]", "values": [{"measurement": "Growth delay (treated/control TGT difference)", "setting": "[1]; CPT-11 10 mg/kg/day i.p.", "result": 10, "unit": "days"}, {"measurement": "No. PR (partial response)", "setting": "[1]; CPT-11 10 mg/kg/day i.p., 10 mice per group", "result": 8}, {"measurement": "TGI, tumor growth inhibition", "setting": "[1]; CPT-11 10 mg/kg/day i.p.", "result": 60, "unit": "%"}, {"measurement": "Growth delay (treated/control TGT difference)", "setting": "[1]; CPT-11 40 mg/kg/day i.p.", "result": 22, "unit": "days"}, {"measurement": "No. PR (partial response)", "setting": "[1]; [7]", "result": 7}, {"measurement": "No. cures (tumor-free mice at end of experiment)", "setting": "[1]; [7]", "result": 1}, {"measurement": "TGI, tumor growth inhibition", "setting": "[1]; CPT-11 40 mg/kg/day i.p., 40 mg/kg/day", "result": "87% and 86%"}, {"measurement": "survival score of mice (tumors reaching 2000 mm3 as a function of time)", "setting": "[1]; CPT-11 at both doses (10 and 40 mg/kg/day)", "result": "significantly increased the survival score"}, {"measurement": "CR nb (complete regression)", "setting": "[2]", "result": 0}, {"measurement": "Cures nb (tumour-free mice at end)", "setting": "[2]", "result": 0}, {"measurement": "PR nb (partial response)", "setting": "[2]", "result": 0}, {"measurement": "response of mut-p53 xenografts to CPT-11", "setting": "[2]; CPT-11 10 and 40 mg/kg/day i.p., data not shown", "result": "no response"}, {"measurement": "TGI % (day)", "setting": "[2]", "result": 61.6, "unit": "%"}, {"measurement": "Calc growth delay (TGD treated − TGD control)", "setting": "[2]", "result": 12.6, "unit": "days"}, {"measurement": "Fraction T/C (treated RTV/control RTV × 100)", "setting": "[2]", "result": 38.4}, {"measurement": "apoptosis (PARP p85 fragment, caspase-3 activation)", "setting": "wt-p53 HT29-A4 cells [3]", "result": "increased apoptosis"}, {"measurement": "cell proliferation versus untreated cells and mut-p53 cells", "setting": "wt-p53 HT29-A4 cells [4]", "result": "significantly decreased cell proliferation"}, {"measurement": "cell cycle blockage", "setting": "wt-p53 HT29-A4 cells [5]", "result": "blocked in early S phase"}]}
{"smiles": "CC[C@H](CO)Nc1nc(NCc2ccccc2)c2ncn(C(C)C)c2n1", "note": "[roscovitine, 6-benzylamino-2-[(R)-1-ethyl-2-hydroxyethylamino]-9-isopropylpurine]", "values": [{"measurement": "antitumour activity as single agent", "setting": "[2]; 400 mg/kg/day for up to six weeks", "result": "did not show antitumour activity"}, {"measurement": "CR nb (complete regression)", "setting": "[2]", "result": 0}, {"measurement": "Cures nb (tumour-free mice at end)", "setting": "[2]", "result": 0}, {"measurement": "PR nb (partial response)", "setting": "[2]", "result": 0}, {"measurement": "TGI % (day)", "setting": "[2]", "result": 30.4, "unit": "%"}, {"measurement": "Calc growth delay (TGD treated − TGD control)", "setting": "[2]", "result": 3, "unit": "days"}, {"measurement": "Fraction T/C (treated RTV/control RTV × 100)", "setting": "[2]", "result": 69.6}, {"measurement": "tolerance", "setting": "[6]", "result": "well tolerated"}, {"measurement": "MTD", "setting": "in vivo", "result": 400, "unit": "mg/kg/day"}]}
